Experimental data from the supplement of paper PMC11208160.

Experiment: recombinant barcode read abundance after kanamycin selection (control-corrected) (log10(CPM+1)); higher = more efficient recombination; sequences stand for … in AGTGCAGAGAAAATCGGCCAGTTTTCTCTGCCTGCAGTCCGCATGCCGT…ATTTATGCAGCGGACTGCCTTTCTCCCAAAGTGATAAACCGGACAGTATCATGGACCGGTTTTCCCGGTAATCCGTATTTGCAAGGTTGGTTTCACT; site = the 11-nt target
Summary of the method: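 IS621 bridge RNA target-binding loops were paired with targets in a pooled library tested in E. coli. After co-electroporation with a donor plasmid, cells were plated in two replicates on chloramphenicol/ampicillin LB agar (control) and on chloramphenicol/ampicillin/kanamycin carrying 0.1 mM IPTG. Barcodes at recombinant junctions were counted as counts per million, averaged and control-corrected to give recombination efficiency. Values are log10(CPM+1).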

Sequence | recombinant barcode read abundance (log10)
CGAGCCCCTTGGGTTCTAACCTGTTGCTGAC [CGAGCCCCTCA_LTGcore_CT_RTGcore_GT] (site CGAGCCCCTCA) (LTG core: CT, RTG core: GT) | 0.19
CGAGCCCCTTGGGTTCTAACCTGTTGCTGCA [CGAGCCCCTCA_LTGcore_CT_RTGcore_TG] (site CGAGCCCCTCA) (LTG core: CT, RTG core: TG) | 0.0283
CGAGCCCCTTGGGTTCTAACCTGTTGCTGGC [CGAGCCCCTCA_LTGcore_CT_RTGcore_GC] (site CGAGCCCCTCA) (LTG core: CT, RTG core: GC) | 0.405
CGAGCCCGCTGGGTTCTAACCTGTTGCTGAG [CGAGCCCCTCA_LTGcore_GC_RTGcore_CT] (site CGAGCCCCTCA) (LTG core: GC, RTG core: CT) | 0.195
CGAGCCCGCTGGGTTCTAACCTGTTGCTGGC [CGAGCCCCTCA_LTGcore_GC_RTGcore_GC] (site CGAGCCCCTCA) (LTG core: GC, RTG core: GC) | 0.0793
CGAGCCCGTTGGGTTCTAACCTGTTGCTGAG [CGAGCCCCTCA_LTGcore_GT_RTGcore_CT] (site CGAGCCCCTCA) (LTG core: GT, RTG core: CT) | 0.102
CGCGCCCAATGGGTTCTAACCTGTTGCGGTT [CGCGCCCCTCC_LTGcore_AA_RTGcore_AA] (site CGCGCCCCTCC) (LTG core: AA, RTG core: AA) | 0.134
CGCGCCCACTGGGTTCTAACCTGTTGCGGAG [CGCGCCCCTCC_LTGcore_AC_RTGcore_CT] (site CGCGCCCCTCC) (LTG core: AC, RTG core: CT) | 0.0345
CGCGCCCACTGGGTTCTAACCTGTTGCGGGT [CGCGCCCCTCC_LTGcore_AC_RTGcore_AC] (site CGCGCCCCTCC) (LTG core: AC, RTG core: AC) | 0.0786
CGCGCCCCCTGGGTTCTAACCTGTTGCGGAG [CGCGCCCCTCC_LTGcore_CC_RTGcore_CT] (site CGCGCCCCTCC) (LTG core: CC, RTG core: CT) | 0.158
CGCGCCCCTTGGGTTCTAACCTGTTGCGGAC [CGCGCCCCTCC_LTGcore_CT_RTGcore_GT] (site CGCGCCCCTCC) (LTG core: CT, RTG core: GT) | 0.0615
CGCGCCCCTTGGGTTCTAACCTGTTGCGGAT [CGCGCCCCTCC_LTGcore_CT_RTGcore_AT] (site CGCGCCCCTCC) (LTG core: CT, RTG core: AT) | 0.243
CGCGCCCCTTGGGTTCTAACCTGTTGCGGCG [CGCGCCCCTCC_LTGcore_CT_RTGcore_CG] (site CGCGCCCCTCC) (LTG core: CT, RTG core: CG) | 0.0742
CGCGCCCCTTGGGTTCTAACCTGTTGCGGGT [CGCGCCCCTCC_LTGcore_CT_RTGcore_AC] (site CGCGCCCCTCC) (LTG core: CT, RTG core: AC) | 0.266
CGCGCCCCTTGGGTTCTAACCTGTTGCGGTT [CGCGCCCCTCC_LTGcore_CT_RTGcore_AA] (site CGCGCCCCTCC) (LTG core: CT, RTG core: AA) | 0.146
CGCGCCCGATGGGTTCTAACCTGTTGCGGAG [CGCGCCCCTCC_LTGcore_GA_RTGcore_CT] (site CGCGCCCCTCC) (LTG core: GA, RTG core: CT) | 0.217
CGCGCCCGCTGGGTTCTAACCTGTTGCGGGC [CGCGCCCCTCC_LTGcore_GC_RTGcore_GC] (site CGCGCCCCTCC) (LTG core: GC, RTG core: GC) | 0.552
CGCGCCCGTTGGGTTCTAACCTGTTGCGGAG [CGCGCCCCTCC_LTGcore_GT_RTGcore_CT] (site CGCGCCCCTCC) (LTG core: GT, RTG core: CT) | 0.062
CGGTCCCCATGGGTTCTAACCTGTTGCCATG [CGGTCCCCTTG_LTGcore_CA_RTGcore_CA] (site CGGTCCCCTTG) (LTG core: CA, RTG core: CA) | 0.185
